This passage reports IC50 results from BindingDB's records for patent US11780849 (Volastra Therapeutics, 2023).

For this experiment, the target named is T1, Ectonucleotide pyrophosphatase/phosphodiesterase family member 1 (Homo sapiens, UniProt P22413).
T1 sequence (P22413 whole entry): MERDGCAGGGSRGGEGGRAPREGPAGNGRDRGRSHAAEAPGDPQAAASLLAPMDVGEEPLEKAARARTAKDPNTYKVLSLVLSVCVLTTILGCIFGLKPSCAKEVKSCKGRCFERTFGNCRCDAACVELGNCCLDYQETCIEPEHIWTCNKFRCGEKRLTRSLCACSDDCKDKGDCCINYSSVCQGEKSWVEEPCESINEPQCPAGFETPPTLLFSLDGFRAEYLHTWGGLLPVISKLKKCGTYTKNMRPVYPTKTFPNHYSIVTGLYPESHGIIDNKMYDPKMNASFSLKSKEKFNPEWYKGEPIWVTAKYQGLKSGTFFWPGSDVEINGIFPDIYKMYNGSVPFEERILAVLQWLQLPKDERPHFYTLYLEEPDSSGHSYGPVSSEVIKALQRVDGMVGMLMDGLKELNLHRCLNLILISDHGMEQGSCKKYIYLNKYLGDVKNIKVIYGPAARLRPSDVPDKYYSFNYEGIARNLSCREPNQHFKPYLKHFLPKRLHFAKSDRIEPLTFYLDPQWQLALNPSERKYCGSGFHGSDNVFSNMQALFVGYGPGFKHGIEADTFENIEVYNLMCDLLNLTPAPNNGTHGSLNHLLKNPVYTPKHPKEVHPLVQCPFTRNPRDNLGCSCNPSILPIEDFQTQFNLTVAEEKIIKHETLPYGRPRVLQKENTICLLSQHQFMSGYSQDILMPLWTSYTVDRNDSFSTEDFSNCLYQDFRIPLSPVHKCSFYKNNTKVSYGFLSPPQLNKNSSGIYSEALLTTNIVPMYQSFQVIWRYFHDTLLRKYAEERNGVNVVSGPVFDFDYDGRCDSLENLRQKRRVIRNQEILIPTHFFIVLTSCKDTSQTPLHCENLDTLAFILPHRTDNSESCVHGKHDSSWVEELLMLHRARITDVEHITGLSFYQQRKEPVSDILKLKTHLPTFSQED
The experiment is described as follows: Inhibition of ENPP1 Hydrolysis of 2′,3′-cGAMP.

Where only a bound is given, the exact number is not on record here.

Procedure: Assay 1: Test compounds were plated in a 3 dilution scheme in a 384 well plate. […] AMP Detection solution (100 μL) was added to each well, the plate centrifuged and incubated for 60 min. Luminescence was measured with an Envision plate reader, and % Inhibition was calculated for each well as: (([max−min]−[test−min])/[max−min].

Compound `COc1cccc2c(OCc3ccc(S(C)(=N)=O)cc3)ccnc12` (configuration not stated) [US11780849, Compound 134] showed a 50% inhibitory concentration (IC50) above 1 µM.

In turn, `COc1cc2nccc(N3CCC(CCS(C)(=N)=O)CC3)c2cc1F` (configuration not stated) [US11780849, Compound 150] gave a concentration for half-maximal inhibition (IC50) below 0.01 µM.

For the compound `COc1ccc2nccc(Oc3ccc(S(C)(=N)=O)cc3)c2n1` (configuration not stated) [US11780849, Compound 130], the concentration for half-maximal inhibition (IC50) was above 1 µM.

Turning to `COc1cc2nncc(N3CCC(CCS(C)(=N)=O)CC3)c2cc1OC` (configuration not stated) [US11780849, Compound 151], the concentration for half-maximal inhibition (IC50) was below 0.01 µM.

For the compound `COc1cc2nccc(N3CCC(CCS(C)(=N)=O)CC3)c2cc1Cl` (configuration not stated) [US11780849, Compound 141], the IC50 is below 0.01 µM.

In turn, `COc1ccc2c(OCc3ccc(S(C)(=N)=O)cc3F)ccnc2c1` (configuration not stated) [US11780849, Compound 135] gave a concentration for half-maximal inhibition (IC50) below 0.01 µM.

The compound `COc1cc2nccc(-c3ccc4c(c3)CN(S(C)(=N)=O)CC4)c2cc1OC` (configuration not stated) [US11780849, Compound 161] came in with an IC50 below 0.01 µM.

Broadly, the IC50 is the midpoint of a concentration-inhibition curve.
